Assay [1] has as its target T1, α1β2γ2 rat GABAA receptors (Rattus norvegicus, UniProt P18508+P62813+P63138).
T1 construct: expressed in transfected cells; host or cells: Xenopus laevis oocytes, cRNA injection
It is filed as cell-based. The conditions noted are these: for IC50: GABA EC10. On the procedure: (§1) Capped cRNAs were synthesized from the linearized plasmids. A poly-A tail of about 400 residues was added to each transcript using yeast poly-A polymerase. The concentration of the cRNA was quantified on a formaldehyde gel using Radiant Red stain for visualization of the RNA. Known concentrations of RNA ladder were loaded as standard on the same gel. cRNAs were precipitated in ethanol/isoamylalcohol 19∶1, the dried pellet dissolved in water and stored at −80°C. Xenopus oocytes were prepared, injected and defollicated as described previously (Research approved by the Kantonstierarzt, Kantonaler Veterinärdienst Bern (Animal research permit BE98/12)). Briefly, Xenopus laevis oocytes were injected with 50 nL of the cRNA solution containing wild type or mutated α1, β2 and γ2 subunits at a concentration of 10 nM: 10 nM: 50 nM and then incubated in modified Barth's solution at 18°C for at least 24 h before the measurements. […] Currents were measured using a home-built two-electrode voltage clamp amplifier in combination with a XY-recorder or digitized using a PowerLab 2/20 (AD Instruments) using the computer program Chart. Tests with a model oocyte were performed to ensure linearity in the larger current range. […] Similar experiments were performed with picrotoxin. Due to the difficulty of washing out picrotoxin out from the oocytes two different oocytes were used to test the inhibition before and after the treatment with the cysteine reactive compound. Inhibition after treatment was divided by % inhibition before treatment. To test the ability of PCCP^− to protect the engineered cysteines from covalent modification by MTSET^+, we used the same sequence of perfusion except that MTSET^+ was co-applied with 1 mM PCCP^−. Results were obtained on 3–4 single oocytes for each receptor.

The target in assay [2] is T2, α1V256Cβ2γ2 GABAA receptor (Rattus norvegicus, UniProt P18508+P62813+P63138, V283C).
T2 construct: expressed in transfected cells; host or cells: Xenopus laevis oocytes, cRNA injection
Kind of assay: Two-electrode voltage clamp, mutant α1V256Cβ2γ2 in Xenopus oocytes. It is filed as cell-based. Particulars: for IC50: read-out: IC50 mean ± SD for inhibition of GABA-activated current. As to the method: as §1
Background: Two-electrode voltage clamp holds a large cell at a set potential and records current.

The target of assay [3] is T3, α1T260Cβ2γ2 GABAA receptor (Rattus norvegicus, UniProt P18508+P62813+P63138, T287C).
T3 construct: expressed in transfected cells; host or cells: Xenopus laevis oocytes, cRNA injection
It is filed as cell-based. The conditions noted are these: read-out: IC50 mean ± SD for inhibition of GABA-activated current. On the procedure: as §1

The test system of assay [4] is α1T260Cβ2γ2 GABAA receptor. It is filed as cell-based, rat. As to the method:
as §1

In assay [5] the test system is RDL Drosophila GABAA receptors, mutation A302S versus wild type. Kind of assay: Concentration inhibition curves in wild type and mutant RDL Drosophila GABAA receptor. Particulars: GABA EC10. It is filed as cell-based.
Assay [6] has as its system cysteine mutant α1β2γ2 GABAA receptors. Kind of assay: Protection of engineered cysteines from covalent modification by MTSET^+ + GABA. Particulars: 1 mM inhibitor present during MTSET^+ + GABA application. It is filed as cell-based, rat. As to the method:
as §1, with “Due to the difficulty of washing out picrotoxin out from the oocytes two different oocytes were used to test the inhibition before and after the treatment with the cysteine reactive compound. Inhibition after treatment was divided by % inhibition before treatment. To test the ability of PCCP^− to protect the engineered cysteines from covalent modification by MTSET^+, we used the same sequence of perfusion except that MTSET^+ was co-applied with 1 mM PCCP^−. Results were obtained on 3–4 single oocytes for each receptor.” left out

Assay [7] deals with T4, α1A253Cβ2γ2 GABAA receptor (Rattus norvegicus, UniProt P18508+P62813+P63138, A280C).
T4 construct: expressed in transfected cells; host or cells: Xenopus laevis oocytes, cRNA injection
Kind of assay: Two-electrode voltage clamp, mutant α1A253Cβ2γ2 in Xenopus oocytes. It is filed as cell-based. Particulars: read-out: IC50 mean ± SD for inhibition of GABA-activated current. As to the method: as §1, with “Due to the difficulty of washing out picrotoxin out from the oocytes two different oocytes were used to test the inhibition before and after the treatment with the cysteine reactive compound. Inhibition after treatment was divided by % inhibition before treatment. To test the ability of PCCP^− to protect the engineered cysteines from covalent modification by MTSET^+, we used the same sequence of perfusion except that MTSET^+ was co-applied with 1 mM PCCP^−. Results were obtained on 3–4 single oocytes for each receptor.” left out

Assay [8] deals with T5, α1T261Cβ2γ2 GABAA receptor (Rattus norvegicus, UniProt P18508+P62813+P63138, T288C).
T5 construct: expressed in transfected cells; host or cells: Xenopus laevis oocytes, cRNA injection
Kind of assay: Two-electrode voltage clamp, mutant α1T261Cβ2γ2 in Xenopus oocytes. It is filed as cell-based. Particulars: read-out: IC50 mean ± SD for inhibition of GABA-activated current. On the procedure: as §1, with “Due to the difficulty of washing out picrotoxin out from the oocytes two different oocytes were used to test the inhibition before and after the treatment with the cysteine reactive compound. Inhibition after treatment was divided by % inhibition before treatment. To test the ability of PCCP^− to protect the engineered cysteines from covalent modification by MTSET^+, we used the same sequence of perfusion except that MTSET^+ was co-applied with 1 mM PCCP^−. Results were obtained on 3–4 single oocytes for each receptor.” left out

Assay [9] has as its target T6, α1L263Cβ2γ2 GABAA receptor (Rattus norvegicus, UniProt P18508+P62813+P63138, L290C).
T6 construct: expressed in transfected cells; host or cells: Xenopus laevis oocytes, cRNA injection
Briefly: Two-electrode voltage clamp, mutant α1L263Cβ2γ2 in Xenopus oocytes. It is filed as cell-based. On the procedure:
as §1, with “Due to the difficulty of washing out picrotoxin out from the oocytes two different oocytes were used to test the inhibition before and after the treatment with the cysteine reactive compound. Inhibition after treatment was divided by % inhibition before treatment. To test the ability of PCCP^− to protect the engineered cysteines from covalent modification by MTSET^+, we used the same sequence of perfusion except that MTSET^+ was co-applied with 1 mM PCCP^−. Results were obtained on 3–4 single oocytes for each receptor.” left out

The target of assay [10] is T7, α1T264Cβ2γ2 GABAA receptor (Rattus norvegicus, UniProt P18508+P62813+P63138, T291C).
T7 construct: expressed in transfected cells; host or cells: Xenopus laevis oocytes, cRNA injection
Kind of assay: Two-electrode voltage clamp, mutant α1T264Cβ2γ2 in Xenopus oocytes. It is filed as cell-based. On the procedure: as §1, with “Due to the difficulty of washing out picrotoxin out from the oocytes two different oocytes were used to test the inhibition before and after the treatment with the cysteine reactive compound. Inhibition after treatment was divided by % inhibition before treatment. To test the ability of PCCP^− to protect the engineered cysteines from covalent modification by MTSET^+, we used the same sequence of perfusion except that MTSET^+ was co-applied with 1 mM PCCP^−. Results were obtained on 3–4 single oocytes for each receptor.” left out

Assay [11] addresses T8, α1T267Cβ2γ2 GABAA receptor (Rattus norvegicus, UniProt P18508+P62813+P63138, T294C).
T8 construct: expressed in transfected cells; host or cells: Xenopus laevis oocytes, cRNA injection
Kind of assay: Two-electrode voltage clamp, mutant α1T267Cβ2γ2 in Xenopus oocytes. It is filed as cell-based. As to the method: as §1, with “Due to the difficulty of washing out picrotoxin out from the oocytes two different oocytes were used to test the inhibition before and after the treatment with the cysteine reactive compound. Inhibition after treatment was divided by % inhibition before treatment. To test the ability of PCCP^− to protect the engineered cysteines from covalent modification by MTSET^+, we used the same sequence of perfusion except that MTSET^+ was co-applied with 1 mM PCCP^−. Results were obtained on 3–4 single oocytes for each receptor.” left out

Assay [12] deals with T9, α1β2γ2 rat GABAA receptors (Rattus norvegicus).
T9 construct: expressed in transfected cells; host or cells: Xenopus laevis oocytes, cRNA injection
Briefly: Concentration inhibition curve, first receptor named in b22 / Figure 4A. It is filed as cell-based. The conditions noted are these: GABA EC10; n = 4; receptor printed as α1β2γ2. On the procedure:
as §1, with “Due to the difficulty of washing out picrotoxin out from the oocytes two different oocytes were used to test the inhibition before and after the treatment with the cysteine reactive compound. Inhibition after treatment was divided by % inhibition before treatment. To test the ability of PCCP^− to protect the engineered cysteines from covalent modification by MTSET^+, we used the same sequence of perfusion except that MTSET^+ was co-applied with 1 mM PCCP^−. Results were obtained on 3–4 single oocytes for each receptor.” left out

Assay [13] has as its target T10, α1β2δ rat GABAA receptors (Rattus norvegicus, UniProt P18506+P62813+P63138).
T10 construct: expressed in transfected cells; host or cells: Xenopus laevis oocytes, cRNA injection
Briefly: Concentration inhibition curve, α1β2δ GABAA receptors in Xenopus oocytes. It is filed as cell-based. The conditions noted are these: GABA EC10; n = 4.

Assay [14] concerns Glycine homomeric receptors. Briefly: Inhibition of homomeric glycine receptors expressed in Xenopus oocytes. It is filed as cell-based. Particulars: compared with GABAA receptors.
Assay [15] has as its system Glycine heteromeric receptors. Kind of assay: Inhibition of heteromeric glycine receptors expressed in Xenopus oocytes. It is filed as cell-based. The conditions noted are these: compared with GABAA receptors.
Another assay concerns the target ELIC (Dickeya chrysanthemi, UniProt P0C7B7). Particulars: read-out: Concentration required for half-maximal inhibition. On the procedure:
as §1, with “Due to the difficulty of washing out picrotoxin out from the oocytes two different oocytes were used to test the inhibition before and after the treatment with the cysteine reactive compound. Inhibition after treatment was divided by % inhibition before treatment. To test the ability of PCCP^− to protect the engineered cysteines from covalent modification by MTSET^+, we used the same sequence of perfusion except that MTSET^+ was co-applied with 1 mM PCCP^−. Results were obtained on 3–4 single oocytes for each receptor.” left out

The next assay relates to non-injected oocytes. Kind of assay: Currents induced in non-injected Xenopus oocytes. It is filed as cell-based, Xenopus laevis. The conditions noted are these: holding potential −80 mV.
Setting [16] is: wild type, end of 1 min co-application, −80 mV, read-out: IC50 mean ± SD for inhibition of GABA-activated current.
Where [17] appears, read: read-out: IC50 mean ± SD for inhibition of GABA-activated current.

Where “and” joins values, the source holds several entries; their conditions need not be identical. Equal values may be shown once. Read-outs that look alike come from different tables or passages of the source. Bounds are passed on as bounds.

The values that follow come from PMC4153658, “A Pentasymmetric Open Channel Blocker for Cys-Loop Receptor Channels” (PLoS ONE, 2014).

Take picrotoxin [reference compound]: the IC50 in assay [1] (setting [16]) turned out to be 2020 ± 890 nM; in assay [2] it was 740 ± 360 nM; in assay [3] (α1T260C mutant, GABA EC10, −80 mV, before MTSET^+ treatment) it was 1310 ± 410 nM. Moreover, the “Change in % inhibition after MTSET^+ + GABA treatment” value in [2] is listed as “significant decrease”; in assay [4] (α1T260C mutant, 5 mM MTSET^+ + 100 µM GABA, inhibitor at about IC50), “significant decrease”. For the same molecule, in [5], the “Reduction in sensitivity (difference in IC50) between wild type and mutant receptors” value was determined as 7 fold. The “Prevention of the MTSET^+ + GABA induced change in inhibitor sensitivity” value in assay [6] is given as “could not be prevented”.
As to `N#CC1=C(C#N)C(C#N)C(C#N)=C1C#N` [PCCP^−, pentacyanocyclopentdienyl anion], in [1] (GABA EC1, apparent desensitization and off-current), the “Concentrations inducing an open-channel block” value is on record as > 1 µM. Further, in assay [1] (compounds 1–4 tested), the “Inhibition of recombinant α1β2γ2 GABAA receptors, preliminary evaluation” value is on record as “highly active”. Further, the “Concentrations at which currents were stimulated” value in assay [1] (currents elicited by low GABA (EC1), highly variable between oocytes) was 0.3 to 10 µM. The “δ, fraction of the voltage field sensed by the blocker from the outside of the membrane” value in assay [1] (estimated with Woodhull equation from IC50 at −120, −80, −40 mV) was ~0.7. The IC50 in assay [1] (membrane potential −40 mV, n = 3, read-out: IC50) was 1800 ± 800 nM; in assay [1] (membrane potential −80 mV, voltage-dependence experiment, n = 3, read-out: IC50) it was 6300 ± 1300 nM; in assay [1] (membrane potential −120 mV, n = 3, read-out: IC50) it was 16200 ± 1300 nM; in assay [1] (setting [16]) it was 2600 nM and 2580 nM; in assay [7], 2630 ± 310 nM; in assay [2], 62200 ± 22400 nM. In addition, the IC50 in [3] is 850 ± 460 nM; in assay [8], 46400 ± 7250 nM; in assay [10] (setting [17]), 3150 ± 480 nM; in assay [11] (setting [17]) it was 770 ± 110 nM; in assay [12] it was 12500 ± 4800 nM; in [13] it was 710 ± 280 nM. Moreover, on ELIC, the IC50 was ~100000 nM. In addition, the “Shift of the GABA concentration response curve” value in assay [1] (presence of 2 µM or 10 µM PCCP^−, currents after 1 min GABA) is given as “leftward shift”. The “Effect of MTSET^+ + GABA treatment on the affinity for PCCP^−” value in assay [1] (wild type, treatment applied for 1 min) is listed as “no effect”. Also, the “Change in % inhibition after MTSET^+ + GABA treatment” value in assay [2] is “significant increase”; in assay [4], “significant increase”; in assay [9] (printed α1T263Cβ2γ2, 5 mM MTSET^+ + 100 µM GABA, inhibitor at about IC50) it was “significant increase”; in [10], “significant increase”; in assay [11] it was “significant increase”. Further, the “Change in ratio of % inhibition after/before MTSET^+ treatment in the absence of GABA” value in assay [9] is “significant increase”. The “Inhibition by PCCP^−” value in assay [14] and in [15] was “similarly inhibited” in each case. In addition, the “Reduction in sensitivity (difference in IC50) between wild type and mutant receptors” value in [5] is given as “about 2 fold”. Moreover, the “Concentration inducing a current in non-injected oocytes” value with non-injected oocytes was ≥ 10 µM. Also, in assay [6], the “Prevention of the MTSET^+ + GABA induced change in inhibitor sensitivity” value was “could be prevented”.
With `C[N+](C)(C)CCSS(C)(=O)=O` [MTSET^+, reference compound], the “Effect of treatment with cysteine reactive compound on wild type receptors” value in assay [1] (wild type, preliminary experiments) is “unaffected”.
